By solubility is commonly meant the concentration that dissolves in the medium under given conditions. The LD50 is the dose expected to kill half of the subjects tested. A lower LD50 goes with greater toxicity. The AUC is concentration integrated over time. A lower AUC goes with less exposure. As usually defined, the half-life is the time in which the quantity being followed falls by half. A high value points to slow decline.

These results are taken from patent publication US4581360A, “Sparsomycin (Sc -Rs) derivative; pharmaceutical composition having anti-tumor activity” (priority 1982, dated 1986).

The subject of one data set is leukemia L 1210 cells. As to the kind of experiment: in-vitro clonogenic L 1210 assay (inhibition of colony formation in soft agar). The note with it: for IC50: Mus musculus, L1210, 72 h, read-out: ID50 (dose giving 50% inhibition of L 1210 colony formation). It counts as cell-based. The procedure:
The in-vitro clonogenic assay was effected in leukemia L 1210 cells in soft agar medium (0.3%). There is a good correlation between the activity in vitro and that in vivo of the medicaments investigated. On the basis of the findings in the in-vitro analysis, therefore, the in-vivo activity can be predicted with good results. In the analysis, the inhibition of the L 1210 colony formation by sparsomycin and derivates thereof is determined for various concentrations, and the dose giving 50% inhibition of the colony formation, as compared with non-treated control cells is calculated (ID50). The analysis is carried out as follows (variant of the method described in Cancer Chemother.Rep. (1967), 51, 451).
From a suspension culture one hundred L 1210 cells are plated out in 35 mm culture dishes (Falcon) containing 1 ml soft agar culture medium and the compound to be investigated in suitable concentrations. The soft agar culture medium consists of Dulbecco's medium supplemented with 20% horse serum, 60 μmole 2-mercaptoethanol, 20 mg/ml L-asparagine, 75 mg/ml DEAE dextran (molecular weight 2×10^6) and 0.3% bacto agar (Difco). The culture dishes were incubated at 37° C. in an atmosphere of 10% CO2 in humidified air for 3 days. After this period of continuous exposure to the medicament the colonies were counted and dose-effect curves made. From these curves, the medicament dose is calculated which causes 50% inhibition of the colony formation as compared with non-treated control cells.

For data set [1], the system named is ribosomes from E. coli (peptidyl transferase). As to the kind of experiment: fragment reaction, cell-free system. It counts as biochemical. The note with it: 30% ethanol in water, 30 min, read-out: ED50 E. coli fragment reaction. Here is the method: (§1) The activity of the novel compounds was also measured in two cell-free systems, namely Saccharomyces cerevisiae and E. coli, a […]. The inhibition of the protein biosynthesis was measured, and this in two ways, by means of both the fragment reaction (R. E. Monro, Methods Enzymol. 1971, 20, 472) and the inhibition of the polyphenylalanine synthesis (N. W. Nirenberg, H. Matthei, Proc.Natl. Acad. Sci. USA 1961, 47, 1588). The concentration of sparsomycin or an analog giving 50% inhibition of the protein synthesis relative to the control is given as ED50.
(§2) Fragment reaction. The reaction described originally by Monro (see reference in the text) was carried out in 150 μl of 33 mM Tris-HCl pH 7.4, 270 mM KCl, 13 mM magnesium acetate containing 1 mg/ml of ribosomes, 2.10^-3 M puromycin, 1 pmol of (^3 H)Leu-ACCAC(U), the required concentration of sparsomycin analog as indicated in the text and 33% ethanol. The reaction was initiated by the addition of the alcohol and allowed to proceed at 0° C. for 30 min. and then stopped by the addition of 100 μl of 0.3M sodium acetate pH 5.5 saturated with MgSO4. The samples were extracted with 1.5 ml of ethyl acetate and 1 ml of the organic phase was checked for radioactivity.
(§3) The 3' terminal pentanucleotide (^3 H)Leu-ACCAC(U) was prepared from (^3 H)Leu-tRNA by ribonuclease T1 as described (Monro, as above).
(§4) Ribosomes and supernatant fractions from E. coli and Saccharomyces cerevisiae were prepared according to standard procedures (Staehelin, T. and Maglott D. R. (1971). Methods Enzymol. 20, 449-456; Sanchez-Madrid, F., Reyes, R., Conde, P. and Ballesta, J. P. G. (1979) Eur. J. Biochem. 98, 409-416).

Data set [2] has as its system ribosomes from Saccharomyces cerevisiae (peptidyl transferase). Description: fragment reaction, cell-free system. Format: biochemical. The following applies: 30% ethanol in water, 30 min, read-out: ED50 s.c. fragment reaction. The procedure:
as §1, §2, §3, §4

Data set [3] has as its system ribosomes from Saccharomyces cerevisiae (protein synthesis). Description: inhibition of polyphenylalanine synthesis, cell-free system. Format: biochemical. The note with it: 30 min, read-out: ED50 s.c. polyphe. The procedure:
as §1
(§5) Polyphenylalanine synthesis. The reaction mixture was slightly different for E. coli and for yeast.
E. coli. The reaction mixture (50 μl) contained 65 mM Tris-HCl pH 7.6, 15 mM MgCl2, 90 mM KCl, 15 mM β-mercaptoethanol, 1 mM GTP, 10 mM ATP, 0.2 mg/ml of polyuridylic acid, 1.5 mg/ml of tRNA, 10 μM of ribosomes, 2.5 mg/ml of phosphoenolpyruvate, 20 μg/ml of pyruvate kinase, the required concentration of sparsomycin analog, as indicated in the text, and 5 μl of supernatant fraction S-100. (^3 H)phenylalanine 30 μM (about 60 cpm/pmol) was added to start the reaction. Incubation was at 37° C. for 30 min. The reaction was stopped by addition of 1 ml of 10% TCA and the samples filtered through glass fiber. The filters were washed with 10 ml of cold 10% TCA, dried and counted for radioactivity.
Yeast. The test was carried out as indicated above for E. Coli but replacing the phosphoenol pyruvate and pyruvate kinase by creatine phosphokinase (50 μg/ml) and creatine phosphate (20 mM). The incubation was performed at 30° C. for 30 min. and the samples processed as above.
In these conditions the control samples polymerized 3 to […] 14 molecules of phenylalanine per ribosome in the case of yeast and E. coli respectively. […]

Data set [4] relates to ribosomes from E. coli (protein synthesis). Described as above. Format: biochemical. The note with it: 30 min, read-out: ED50 E. coli polyphe. Here is the method:
The activity of the novel compounds was also measured in two cell-free systems, namely Saccharomyces cerevisiae and E. coli, a prokaryotic and a eukaryotic system, respectively.
as §5
E. coli. […] (^3 H)phenylalanine 30 μM (about 60 cpm/pmol) was added to start the reaction. Incubation was at 37° C. for 30 min. The reaction was stopped by addition of 1 ml of 10% TCA and the samples filtered through glass fiber. The filters were washed with 10 ml of cold 10% TCA, dried and counted for radioactivity.

The next data set can be described thus: solubility in water. It counts as physicochemical. Here is the method: The n-octylsparsomycin is poorly dissolved in water (about 0.2 mg/ml water), whereas benzylsparsomycin is dissolved well in water (1.5 mg/ml water). As a consequence, the use of the latter compound is highly attractive.
The nature of data set [5]: acute toxicity (LDx values). The following applies: in vivo, mouse. Format: in vivo. The source says:
(§6) The acute LDx values (lethal dose for x% of the animals) are shown below.

The next data set in a line: pharmacokinetics in dog. The note with it: iv.
Another data set has as its system mouse. As to the kind of experiment: acute toxicity (LDx values). It counts as in vivo. The note with it: i.p.
Description: as §6

For data set [6] the following is noted: clinical tests (Cancer.Chemother.Rep. (1969), 43, 29); cited from earlier work.
For a further data set, the system named is whole reticulocytes. The note with it: Biochem.Biophys. Acta (1966), 119, 109; cited from earlier work.
[7] abbreviates: L 1210 cells, soft agar 0.3%, 3 days continuous exposure.

Values after ≈ are worked out from the molar mass of the structure shown. Where two headings read alike, the source gives them in different places.

For the molecule `CSC[S@+]([O-])C[C@H](COC(C)=O)NC(=O)/C=C/c1c(C)[nH]c(=O)[nH]c1=O` [O--acetylsparsomycin, O-acetyl-sparsomycin (Sc -Rs)], the IC50 with leukemia L 1210 cells (setting [7]) was 0.15 µg/mL (≈ 0.372 µM); in data set [1], 15 µM; in data set [2], 50 µM; in [3], 3000 nM; in data set [4], 8 µM.

As to `Cc1[nH]c(=O)[nH]c(=O)c1C=CC(=O)NC(CO)C[S+]([O-])CSCc1ccccc1` (stereo not shown) [benzylsparsomycin, Benzylsparsomycin (Sc -Rs)], the solubility in the data set “solubility in water” (H2O, pH=7, read-out: Solubility in H2O (pH=7)) stood at 1500 µg/mL (≈ 3430 µM); in the data set “solubility in water” (read-out: solubility in water) it was 1500 µg/mL (≈ 3430 µM). The IC50 in the data set on leukemia L 1210 cells came out at 0.048 µg/mL (≈ 0.11 µM); in data set [4] it was 0.8 µM.

Consider `CCCCCCCCSC[S@+]([O-])C[C@H](CO)NC(=O)/C=C/c1c(C)[nH]c(=O)[nH]c1=O` [n-octylsparsomycin, n-octyl-sparsomycin (Sc -Rs)], for which the solubility in “solubility in water” (read-out: solubility in water) was about 200 µg/mL (≈ 435 µM). Moreover, the “activity relative to sparsomycin proper” value in the data set with leukemia L 1210 cells (L 1210 colony formation, concentrations in ng/ml) is recorded as “approximately 3”. Also, in the data set with leukemia L 1210 cells (L 1210 colony formation, concentrations in μmole/ml), the “activity relative to sparsomycin, concentrations expressed in μmole/ml” value is “approximately four times higher”. Also, the IC50 is 0.047 µg/mL (≈ 0.102 µM) in the data set with leukemia L 1210 cells (setting [7]); 80 µM in [1]; 180 µM in data set [2]; 350 nM in [3]; 1.5 µM in data set [4]. In data set [5] (iv), this molecule returned a median lethal dose (LD50) of over 30 mg/kg. For the same molecule, the dose excreted in “pharmacokinetics in dog” (bile, 0.7 mg/kg) was 3.4%; in the data set “pharmacokinetics in dog” (urine, 0.7 mg/kg) it was 0%. For the same molecule, the exposure (AUC) in “pharmacokinetics in dog” (in vivo, 0.7 mg/kg) is 1100 ng·h/mL; in “pharmacokinetics in dog” (in vivo, 0.9 mg/kg), 1200 ng·h/mL. Besides, the half-life is 66 min in “pharmacokinetics in dog” (in vivo, 0.7 mg/kg) and 96 min in the data set “pharmacokinetics in dog” (in vivo, 0.9 mg/kg).

`CSC[S@+]([O-])C[C@H](CO)NC(=O)/C=C/c1c(C)[nH]c(=O)[nH]c1=O` [sparsomycin, Sparsomycin (Sc -Rs)]: the IC50 in the data set with leukemia L 1210 cells was 0.15 µg/mL (≈ 0.415 µM); in data set [1] it was 6 µM; in [2], 15 µM; in [3], 4000 nM; in [4] it was 9 µM. Moreover, in data set [5] (ip), the 50% lethal dose (LD50) was 14 mg/kg. This molecule yielded an LD10 in the data set with mouse of 8.0 mg per kg mouse. Besides, in data set [6], the “toxicity in clinical tests” value is listed as “eye toxicity”. The “activity against whole reticulocytes” value in the data set with whole reticulocytes is on record as “not active”. Further, the AUC in the data set “pharmacokinetics in dog” (in vivo, 0.7 mg/kg) is 1300 ng·h/mL; in the data set “pharmacokinetics in dog” (in vivo, 1.48 mg/kg), 10800 ng·h/mL. The half-life in the data set “pharmacokinetics in dog” (in vivo, 0.7 mg/kg) is 66 min; in the data set “pharmacokinetics in dog” (in vivo, 1.48 mg/kg) it was 138 min. The dose excreted was determined as 24% in “pharmacokinetics in dog” (in vivo, 0.7 mg/kg, Recovery in urine, i.v. bolus); 2% in the data set “pharmacokinetics in dog” (in vivo, 1.48 mg/kg, Recovery in gall liquid, i.v. bolus); 55% in “pharmacokinetics in dog” (in vivo, 1.48 mg/kg, Recovery in urine, i.v. bolus).
